Earlier results on 1 molecule are cited in PMC2821159 (Bioorganic & medicinal chemistry, 2009).

Each structure is given as a SMILES string.

For the data set, the system named is protein kinases.

As for `CNc1ncnc2c1c(-c1cccc(O)c1)cn2C(C)C` [Compound 4, 3-(7-isopropyl-4-(methylamino)-7H-pyrrolo[2,3-d]pyrimidin-5yl)phenol], the “inhibition against protein kinases” value was “poor inhibition”.
